{
  "source": "patent US8222417B2",
  "about": "“Compound having 11β-HSD1 inhibitory activity” (Taisho Pharmaceutical Co., Ltd, priority 2007, dated 2012)",
  "note": "Counter-ions that a name gives are not always drawn.",
  "data": [
    {"biological_target": "T1, 11β-HSD1 (Homo sapiens, UniProt P28845)", "T1 construct": "human liver microsome (enzyme source, Tissue Transformation Technologies); tissue Tissue Transformation Technologies; host or cells: human liver microsomes", "T1 sequence (P28845 whole entry)": "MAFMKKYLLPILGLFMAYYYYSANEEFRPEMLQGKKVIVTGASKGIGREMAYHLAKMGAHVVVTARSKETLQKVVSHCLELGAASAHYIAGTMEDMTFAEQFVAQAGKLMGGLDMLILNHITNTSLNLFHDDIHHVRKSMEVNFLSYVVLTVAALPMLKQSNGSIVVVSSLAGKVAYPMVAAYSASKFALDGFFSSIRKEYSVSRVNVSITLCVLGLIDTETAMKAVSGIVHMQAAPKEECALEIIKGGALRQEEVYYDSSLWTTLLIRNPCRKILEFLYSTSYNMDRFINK", "experiment": "11β-HSD1 inhibition test (human liver microsome, HTRF cortisol detection)", "assay_type": "biochemical", "details": "human liver microsome as enzyme source; cortisone 100 nM; 20° C., 80 minutes; generated cortisol quantified by HTRF", "method": "Test Example [11β-HSD1 Inhibition Test]\nTest Compounds were Evaluated as Follows.\n11β-HSD1 enzyme reaction was performed in a reaction solution of 100 μl total volume using 96-well polypropylene microplates. The reaction solution was prepared in 30 mM Tris-HCl (pH 7.4)/1 mM EDTA buffer to contain NADPH at a final concentration of 100 μM, G6P at a final concentration of 1 mM, human liver microsome (enzyme source, Tissue Transformation Technologies) at a final concentration of 0.8 μg/ml and 10 μl of a test compound dissolved in DMSO. The enzyme reaction was initiated by addition of cortisone at a final concentration of 100 nM. After incubation at 20° C. for 80 minutes, 10 μl of 1 mM 18β glycyrrhetinic acid, which is a non-specific inhibitor, was added to stop the reaction. Next, the amount of generated cortisol was quantified with a detection kit (Sceti Medical Labo K.K., Japan) according to the HTRF (Homogeneous Time-Resolved Fluorescence) method. This system detects fluorescence resonance energy transfer between europium-labeled anti-cortisol antibody and XL665-labeled cortisol. Upon addition of unlabeled cortisol, binding signals will be attenuated due to competitive reaction. Based on this principle, the amount of cortisol generated by the enzyme reaction was evaluated using a standard curve obtained from samples with known concentrations of cortisol included in the kit. The HTRF reaction was performed in 96-well half area microplates as follows: to 30 μl enzyme reaction solution, an anti-cortisol antibody solution (15 μl) and an XL665-labeled cortisol solution (15 μl) included in the kit were added, and the plates were vortexed at room temperature for 1 hour and further allowed to stand at 20° C. for 1 hour. 40 μl of this reaction solution was transferred to 384-well microplates and measured for its fluorescence. 18β Glycyrrhetinic acid was added to wells before initiation of the enzyme reaction and the amount of cortisol generated in these wells was used as a background level. Test compounds were evaluated using serial dilutions at a common ratio of 3 to calculate their IC50 values, assuming that the amount of cortisol generated in wells containing no test compound was set to 100% enzyme activity.", "units": {"IC50": "nM"}, "values": [
      {"smiles": "O=C(N[C@H]1C2CC3CC1C[C@](O)(C3)C2)N1CCCc2c(F)cccc21", "note": "[Compound 1, 5-fluoro-N-(E-1-hydroxyadamantan-4-yl)-3,4-dihydroquinoline-1(2H)-carboxamide]", "IC50": 1},
      {"smiles": "O=C(N[C@H]1C2CC3CC1C[C@](O)(C3)C2)N1CCCc2cc(F)ccc21", "note": "[Compound 2, 6-fluoro-N-(E-1-hydroxyadamantan-4-yl)-3,4-dihydroquinoline-1(2H)-carboxamide]", "IC50": 0.9},
      {"smiles": "O=C(N[C@H]1C2CC3CC1C[C@](O)(C3)C2)N1CCCc2ccc(F)cc21", "note": "[Compound 3, 7-fluoro-N-(E-1-hydroxyadamantan-4-yl)-3,4-dihydroquinoline-1(2H)-carboxamide]", "IC50": 1},
      {"smiles": "O=C(N[C@H]1C2CC3CC1C[C@](O)(C3)C2)N1CCCc2cccc(F)c21", "note": "[Compound 4, 8-fluoro-N-(E-1-hydroxyadamantan-4-yl)-3,4-dihydroquinoline-1(2H)-carboxamide]", "IC50": 1.1},
      {"smiles": "COc1ccc2c(c1)N(C(=O)N[C@H]1C3CC4CC1C[C@](O)(C4)C3)CCC2", "note": "[Compound 5, N-(E-1-hydroxyadamantan-4-yl)-7-methoxy-3,4-dihydroquinoline-1(2H)-carboxamide]", "IC50": 1.2},
      {"smiles": "Cc1ccc2c(c1)N(C(=O)N[C@H]1C3CC4CC1C[C@](O)(C4)C3)CCC2", "note": "[Compound 6, N-(E-1-hydroxyadamantan-4-yl)-7-methyl-3,4-dihydroquinoline-1(2H)-carboxamide]", "IC50": 0.6},
      {"smiles": "N#Cc1ccc2c(c1)CCCN2C(=O)N[C@H]1C2CC3CC1C[C@](O)(C3)C2", "note": "[Compound 7, 6-cyano-N-(E-1-hydroxyadamantan-4-yl)-3,4-dihydroquinoline-1(2H)-carboxamide]", "IC50": 2.8},
      {"smiles": "CO[C@]12CC3CC(C1)[C@@H](NC(=O)N1CCCc4ccccc41)C(C3)C2", "note": "[Compound 8, N-(E-1-methoxyadamantan-4-yl)-3,4-dihydroquinoline-1(2H)-carboxamide]", "IC50": 0.9},
      {"smiles": "O=C(NC1C2CC3CC1CC(C(=O)O)(C3)C2)N1CCCc2ccccc21", "note": "(stereo not drawn) [Compound 10b, E-4-[(3,4-dihydroquinolin-1(2H)-ylcarbonyl)amino]adamantane-1-carboxylic acid]", "IC50": 17.5},
      {"smiles": "NC(=O)C12CC3CC(C1)C(NC(=O)N1CCCc4ccccc41)C(C3)C2", "note": "(stereo not drawn) [Compound 11b, N-(E-5-carbamoyladamantan-2-yl)-3,4-dihydroquinoline-1(2H)-carboxamide]", "IC50": 0.8},
      {"smiles": "O=C(N[C@H]1C2CC3CC1C[C@](F)(C3)C2)N1CCCc2ccccc21", "note": "[Compound 12, N-(E-1-fluoroadamantan-4-yl)-3,4-dihydroquinoline-1(2H)-carboxamide]", "IC50": 1},
      {"smiles": "O=C(N[C@H]1C2CC3CC1C[C@](O)(C3)C2)N1CCCCc2ccccc21", "note": "[Compound 13, N-(E-1-hydroxyadamantan-4-yl)-2,3,4,5-tetrahydro-1H-1-benzoazepine-1-carboxamide]", "IC50": 1.2},
      {"smiles": "CC1(C)CCN(C(=O)N[C@H]2C3CC4CC2C[C@](O)(C4)C3)c2ccccc21", "note": "[Compound 14, N-(E-1-hydroxyadamantan-4-yl)-4,4-dimethyl-3,4-dihydroquinoline-1(2H)-carboxamide]", "IC50": 2},
      {"smiles": "O=C(N[C@H]1C2CC3CC1C[C@](O)(C3)C2)N1CCOc2ccccc21", "note": "[Compound 16, N-(E-1-hydroxyadamantan-4-yl)-2,3-dihydro-4H-1,4-benzoxazine 4-carboxamide]", "IC50": 1.5},
      {"smiles": "Cc1ccc2c(c1)N(C(=O)N[C@H]1C3CC4CC1C[C@](O)(C4)C3)CCO2", "note": "[Compound 17, N-(E-1-hydroxyadamantan-4-yl)-6-methyl-2,3-dihydro-4H-1,4-benzoxazine 4-carboxamide]", "IC50": 0.8},
      {"smiles": "O=C(OC1C2CC3CC1CC(O)(C3)C2)N1CCCc2ccccc21", "note": "(stereo not drawn) [Compound 18b, E-5-hydroxyadamantan-2-yl 3,4-dihydroquinoline-1(2H)-carboxylate]", "IC50": 0.9},
      {"smiles": "O=C(N[C@H]1C2CC3CC1C[C@](O)(C3)C2)N1CCOc2ccc(F)cc21", "note": "[Compound 19, 6-fluoro-N-(E-1-hydroxyadamantan-4-yl)-2,3-dihydro-4H-1,4-benzoxazine 4-carboxamide]", "IC50": 3.5},
      {"smiles": "COC(=O)c1ccc2c(c1)N(C(=O)N[C@H]1C3CC4CC1C[C@](O)(C4)C3)CCO2", "note": "[Compound 20, methyl 4-[(E-5-hydroxyadamantan-2-yl)carbamoyl]-3,4-dihydro-2H-1,4-benzoxazine-6-carboxylate]", "IC50": 6.7},
      {"smiles": "Cc1ccc2c(c1)OCCN2C(=O)N[C@H]1C2CC3CC1C[C@](O)(C3)C2", "note": "[Compound 23, N-(E-5-hydroxyadamantan-2-yl)-7-methyl-2,3-dihydro-4H-1,4-benzoxazine-4-carboxamide]", "IC50": 1.1},
      {"smiles": "O=C(N[C@H]1C2CC3CC1C[C@](O)(C3)C2)N1CCOc2cc(F)ccc21", "note": "[Compound 24, 7-fluoro-N-(E-5-hydroxyadamantan-2-yl)-2,3-dihydro-4H-1,4-benzoxazine-4-carboxamide]", "IC50": 1.1},
      {"smiles": "Cc1cccc2c1N(C(=O)N[C@H]1C3CC4CC1C[C@](O)(C4)C3)CCO2", "note": "[Compound 25, N-(E-5-hydroxyadamantan-2-yl)-5-methyl-2,3-dihydro-4H-1,4-benzoxazine-4-carboxamide]", "IC50": 1.1},
      {"smiles": "O=C(N[C@H]1C2CC3CC1C[C@](O)(C3)C2)N1CCOc2ccc(C(F)(F)F)cc21", "note": "[Compound 26, N-(E-5-hydroxyadamantan-2-yl)-6-(trifluoromethyl)-2,3-dihydro-4H-1,4-benzoxazine-4-carboxamide]", "IC50": 3.4},
      {"smiles": "O=C(N[C@H]1C2CC3CC1C[C@](O)(C3)C2)N1CCSc2ccccc21", "note": "[Compound 27, N-(E-5-hydroxyadamantan-2-yl)-2,3-dihydro-4H-1,4-benzothiazine-4-carboxamide]", "IC50": 0.7},
      {"smiles": "O=C(N[C@H]1C2CC3CC1C[C@](O)(C3)C2)N1CCNc2ccccc21", "note": "[Compound 32, N-(E-5-hydroxyadamantan-2-yl)-3,4-dihydroquinoxaline-1(2H)-carboxamide hydrochloride]", "IC50": 1.4},
      {"smiles": "CN1CCN(C(=O)N[C@H]2C3CC4CC2C[C@](O)(C4)C3)c2ccccc21", "note": "[Compound 33, N-(E-5-hydroxyadamantan-2-yl)-4-methyl-3,4-dihydroquinoxaline-1(2H)-carboxamide hydrochloride]", "IC50": 1.4},
      {"smiles": "O=C(NC1C2CC3CC(C2)CC1C3)N1CCOc2ccccc21", "note": "(stereo not drawn) [Compound 34, N-adamantan-2-yl-2,3-dihydro-4H-1,4-benzoxazine-4-carboxamide]", "IC50": 1.1},
      {"smiles": "NC(=O)[C@]12CC3CC(C1)[C@@H](NC(=O)N1CCOc4ccccc41)C(C3)C2", "note": "[Compound 37b, N-[E-5-carbamoyladamantan-2-yl]-2,3-dihydro-4H-1,4-benzoxazine-4-carboxamide]", "IC50": 0.6},
      {"smiles": "NC(=O)[C@]12CC3CC(C1)[C@@H](NC(=O)N1CCOc4ccc(F)cc41)C(C3)C2", "note": "[Compound 38, N-(E-5-carbamoyladamantan-2-yl)-6-fluoro-2,3-dihydro-4H-1,4-benzoxazine-4-carboxamide]", "IC50": 0.6},
      {"smiles": "Cc1ccc2c(c1)N(C(=O)N[C@H]1C3CC4CC1C[C@](C(N)=O)(C4)C3)CCO2", "note": "[Compound 39, N-(E-5-carbamoyladamantan-2-yl)-6-methyl-2,3-dihydro-4H-1,4-benzoxazine-4-carboxamide]", "IC50": 0.6},
      {"smiles": "CO[C@]12CC3CC(C1)[C@@H](NC(=O)N1CCOc4ccccc41)C(C3)C2", "note": "[Compound 40, N-(E-1-methoxyadamantan-4-yl)-2,3-dihydro-4H-1,4-benzoxazine-4-carboxamide]", "IC50": 1.1},
      {"smiles": "CS(=O)(=O)[C@]12CC3CC(C1)[C@@H](NC(=O)N1CCOc4ccccc41)C(C3)C2", "note": "[Compound 41, N-(E-1-methylsulfonyladamantan-4-yl)-2,3-dihydro-4H-1,4-benzoxazine-4-carboxamide]", "IC50": 34.7},
      {"smiles": "O=C(OC1C2CC3CC1CC(O)(C3)C2)N1CCOc2ccccc21", "note": "(stereo not drawn) [Compound 42b, E-5-hydroxyadamantan-2-yl 2,3-dihydro-4H-1,4-benzoxazine-4-carboxylate]", "IC50": 4.6},
      {"smiles": "Cc1ccc2c(c1)N(C(=O)OC1C3CC4CC1CC(O)(C4)C3)CCO2", "note": "(stereo not drawn) [Compound 43b, E-5-hydroxyadamantan-2-yl 6-methyl-2,3-dihydro-4H-1,4-benzoxazine-4-carboxylate]", "IC50": 3.2},
      {"smiles": "O=C(OC1C2CC3CC1CC(O)(C3)C2)N1CCOc2ccc(F)cc21", "note": "(stereo not drawn) [Compound 44b, E-5-hydroxyadamantan-2-yl 6-fluoro-2,3-dihydro-4H-1,4-benzoxazine-4-carboxylate]", "IC50": 9.5},
      {"smiles": "O=C(N[C@H]1C2CC3CC1C[C@](O)(C3)C2)N1CCCc2ccccc21", "note": "[Compound A-1, N-[E-1-hydroxyadamantan-4-yl]-3,4-dihydroquinoline-1(2H)-carboxamide]", "IC50": 0.7},
      {"smiles": "O=C(N[C@H]1C2CC3CC1C[C@](O)(C3)C2)N1CCCc2cc(Cl)ccc21", "note": "[Compound A-2, 6-chloro-N-[E-1-hydroxyadamantan-4-yl]-3,4-dihydroquinoline-1(2H)-carboxamide]", "IC50": 0.9}
    ]}
  ]
}
